According to ChEMBL document CHEMBL1152560, “Substituted 2-arylbenzothiazoles as kinase inhibitors: hit-to-lead optimization” (Bioorg Med Chem, 2009):

Legend:
[1] = target: T1, Serine/threonine-protein kinase Chk1 (Homo sapiens) (UniProt O14757); assay: Residual activity of CHK1 at 1 uM by microplate scintillation counting
T1 sequence (whole entry): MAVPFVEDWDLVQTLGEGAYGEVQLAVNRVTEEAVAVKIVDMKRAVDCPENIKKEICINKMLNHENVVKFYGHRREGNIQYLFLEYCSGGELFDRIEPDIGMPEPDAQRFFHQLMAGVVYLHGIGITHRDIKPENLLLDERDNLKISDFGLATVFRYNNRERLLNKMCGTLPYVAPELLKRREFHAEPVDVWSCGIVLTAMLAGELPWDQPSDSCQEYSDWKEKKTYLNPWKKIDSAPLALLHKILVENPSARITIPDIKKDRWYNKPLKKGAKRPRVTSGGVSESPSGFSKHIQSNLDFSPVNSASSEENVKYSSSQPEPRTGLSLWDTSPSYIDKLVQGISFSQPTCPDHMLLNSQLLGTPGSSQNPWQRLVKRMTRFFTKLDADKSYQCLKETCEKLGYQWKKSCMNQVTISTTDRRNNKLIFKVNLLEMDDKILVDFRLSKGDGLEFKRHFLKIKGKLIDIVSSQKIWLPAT

[2] = target: Serine/threonine-protein kinase PLK3 (Homo sapiens) (UniProt Q9H4B4); assay: Residual activity of PLK3 at 10 uM by microplate scintillation counting
[3] = target: T2, Phosphorylase b kinase gamma catalytic chain, liver/testis isoform (Homo sapiens) (UniProt P15735); assay: Residual activity of PHKG2 at 1 uM by microplate scintillation counting
T2 sequence (whole entry): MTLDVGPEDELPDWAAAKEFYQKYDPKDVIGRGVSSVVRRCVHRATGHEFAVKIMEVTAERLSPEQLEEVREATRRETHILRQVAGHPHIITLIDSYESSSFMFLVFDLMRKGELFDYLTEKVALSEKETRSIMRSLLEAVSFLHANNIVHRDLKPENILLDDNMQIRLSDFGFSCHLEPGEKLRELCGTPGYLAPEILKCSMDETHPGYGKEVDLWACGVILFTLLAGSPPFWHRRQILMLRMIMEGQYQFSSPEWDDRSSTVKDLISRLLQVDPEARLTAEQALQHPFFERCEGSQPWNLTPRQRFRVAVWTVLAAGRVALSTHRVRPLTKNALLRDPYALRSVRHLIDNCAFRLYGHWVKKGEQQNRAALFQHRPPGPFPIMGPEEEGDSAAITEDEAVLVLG

[4] = tested on: Fibroblast growth factor receptor 1 (Homo sapiens), P11362 [V561M]; assay: Residual activity of FGFR1 V561M mutant at 0.1 uM by microplate scintillation counting
[5] = target: Non-receptor tyrosine-protein kinase TYK2 (Homo sapiens) (UniProt P29597); assay: Residual activity of TYK2 at 1 uM by microplate scintillation counting
[6] = target: Fibroblast growth factor receptor 4 (Homo sapiens) (UniProt P22455); assay: Residual activity of FGFR4 at 10 uM by microplate scintillation counting
[7] = target: ALK tyrosine kinase receptor (Homo sapiens) (UniProt Q9UM73); assay: Residual activity of ALK at 10 uM by microplate scintillation counting
[8] = target: Ephrin type-A receptor 4 (Homo sapiens) (UniProt P54764); assay: Residual activity of EPHA4 at 0.1 uM by microplate scintillation counting
[9] = target: Mitogen-activated protein kinase kinase kinase kinase 4 (Homo sapiens) (UniProt O95819); assay: Residual activity of MAP4K4 at 10 uM by microplate scintillation counting
[10] = target: T3, Serine/threonine-protein kinase Sgk1 (Homo sapiens) (UniProt O00141); assay: Residual activity of SGK1 at 10 uM by microplate scintillation counting
T3 sequence (whole entry): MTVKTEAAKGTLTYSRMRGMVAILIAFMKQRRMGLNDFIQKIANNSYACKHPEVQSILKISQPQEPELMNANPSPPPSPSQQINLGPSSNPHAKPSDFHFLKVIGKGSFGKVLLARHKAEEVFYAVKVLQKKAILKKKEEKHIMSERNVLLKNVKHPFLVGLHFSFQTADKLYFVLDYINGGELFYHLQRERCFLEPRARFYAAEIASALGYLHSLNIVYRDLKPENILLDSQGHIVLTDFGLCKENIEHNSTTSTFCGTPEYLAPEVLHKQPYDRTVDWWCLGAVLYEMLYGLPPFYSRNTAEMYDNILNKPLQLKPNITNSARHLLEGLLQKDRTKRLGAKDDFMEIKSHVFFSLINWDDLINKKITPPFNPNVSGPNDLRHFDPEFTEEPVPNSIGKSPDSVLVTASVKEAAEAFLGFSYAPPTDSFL

[11] = target: Ribosomal protein S6 kinase alpha-3 (Homo sapiens) (UniProt P51812); assay: Residual activity of RPS6KA3 at 0.1 uM by microplate scintillation counting
[12] = target: T4, Serine/threonine-protein kinase PLK4 (Homo sapiens) (UniProt O00444); assay: Residual activity of SAK at 0.1 uM by microplate scintillation counting
T4 sequence (whole entry): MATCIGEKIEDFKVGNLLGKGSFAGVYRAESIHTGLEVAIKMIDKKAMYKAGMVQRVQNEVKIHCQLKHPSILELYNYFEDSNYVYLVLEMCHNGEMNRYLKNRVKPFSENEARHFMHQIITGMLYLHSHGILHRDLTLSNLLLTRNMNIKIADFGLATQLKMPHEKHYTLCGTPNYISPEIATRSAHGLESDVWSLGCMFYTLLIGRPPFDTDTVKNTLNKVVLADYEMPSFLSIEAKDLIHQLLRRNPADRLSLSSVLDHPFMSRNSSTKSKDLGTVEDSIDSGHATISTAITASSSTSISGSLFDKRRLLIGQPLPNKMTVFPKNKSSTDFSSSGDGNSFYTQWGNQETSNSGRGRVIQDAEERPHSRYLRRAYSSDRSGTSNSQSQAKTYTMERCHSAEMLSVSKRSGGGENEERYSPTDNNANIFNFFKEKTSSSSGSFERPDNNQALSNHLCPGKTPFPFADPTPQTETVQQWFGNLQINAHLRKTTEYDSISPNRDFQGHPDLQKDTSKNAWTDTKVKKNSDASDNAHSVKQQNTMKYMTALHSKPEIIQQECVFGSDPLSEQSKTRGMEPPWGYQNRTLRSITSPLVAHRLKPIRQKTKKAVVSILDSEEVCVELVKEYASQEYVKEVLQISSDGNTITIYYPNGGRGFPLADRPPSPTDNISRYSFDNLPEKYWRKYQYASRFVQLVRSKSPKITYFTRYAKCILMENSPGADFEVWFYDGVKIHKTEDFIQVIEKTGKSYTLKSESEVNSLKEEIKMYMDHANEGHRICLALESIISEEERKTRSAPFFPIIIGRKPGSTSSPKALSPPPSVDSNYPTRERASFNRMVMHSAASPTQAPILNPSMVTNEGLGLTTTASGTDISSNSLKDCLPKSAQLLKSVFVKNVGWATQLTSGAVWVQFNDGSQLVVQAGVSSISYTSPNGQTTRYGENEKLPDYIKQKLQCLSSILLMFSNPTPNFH

Mitogen-activated protein kinase kinase kinase kinase 4 (Homo sapiens), sequence (O95819 2-1239 limits assumed): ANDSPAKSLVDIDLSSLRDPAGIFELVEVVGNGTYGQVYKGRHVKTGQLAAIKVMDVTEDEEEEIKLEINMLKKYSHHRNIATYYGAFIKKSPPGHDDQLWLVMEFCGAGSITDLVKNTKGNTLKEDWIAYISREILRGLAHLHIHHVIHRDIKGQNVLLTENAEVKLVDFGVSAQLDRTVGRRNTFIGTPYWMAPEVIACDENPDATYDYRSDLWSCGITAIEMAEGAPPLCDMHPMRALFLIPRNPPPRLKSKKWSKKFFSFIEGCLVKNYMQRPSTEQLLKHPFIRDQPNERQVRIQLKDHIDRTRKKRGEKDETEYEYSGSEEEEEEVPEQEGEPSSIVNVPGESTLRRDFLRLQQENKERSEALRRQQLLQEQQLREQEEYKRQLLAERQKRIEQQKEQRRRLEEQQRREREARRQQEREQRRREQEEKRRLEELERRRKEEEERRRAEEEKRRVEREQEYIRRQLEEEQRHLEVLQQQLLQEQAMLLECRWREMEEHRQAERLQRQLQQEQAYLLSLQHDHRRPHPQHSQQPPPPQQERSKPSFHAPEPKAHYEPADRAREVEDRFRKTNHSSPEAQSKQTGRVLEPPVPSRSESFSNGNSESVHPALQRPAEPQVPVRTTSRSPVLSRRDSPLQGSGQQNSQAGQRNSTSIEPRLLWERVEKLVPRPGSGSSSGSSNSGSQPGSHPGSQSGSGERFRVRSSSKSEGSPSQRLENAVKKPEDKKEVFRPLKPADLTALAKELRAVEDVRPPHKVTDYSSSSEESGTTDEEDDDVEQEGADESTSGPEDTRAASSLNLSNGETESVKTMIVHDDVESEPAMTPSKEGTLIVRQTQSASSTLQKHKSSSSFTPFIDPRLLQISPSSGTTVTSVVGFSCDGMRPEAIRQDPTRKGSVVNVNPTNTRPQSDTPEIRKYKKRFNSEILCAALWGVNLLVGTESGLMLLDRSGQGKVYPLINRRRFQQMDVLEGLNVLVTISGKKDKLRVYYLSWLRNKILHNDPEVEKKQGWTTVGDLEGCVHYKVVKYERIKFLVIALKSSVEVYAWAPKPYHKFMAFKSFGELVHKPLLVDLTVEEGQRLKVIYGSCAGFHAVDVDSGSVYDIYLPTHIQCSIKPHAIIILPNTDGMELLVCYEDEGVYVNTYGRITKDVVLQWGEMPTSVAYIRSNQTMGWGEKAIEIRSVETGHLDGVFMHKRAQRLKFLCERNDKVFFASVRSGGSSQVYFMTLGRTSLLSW
Fibroblast growth factor receptor 4 (Homo sapiens), sequence (P22455 22-802 limits assumed): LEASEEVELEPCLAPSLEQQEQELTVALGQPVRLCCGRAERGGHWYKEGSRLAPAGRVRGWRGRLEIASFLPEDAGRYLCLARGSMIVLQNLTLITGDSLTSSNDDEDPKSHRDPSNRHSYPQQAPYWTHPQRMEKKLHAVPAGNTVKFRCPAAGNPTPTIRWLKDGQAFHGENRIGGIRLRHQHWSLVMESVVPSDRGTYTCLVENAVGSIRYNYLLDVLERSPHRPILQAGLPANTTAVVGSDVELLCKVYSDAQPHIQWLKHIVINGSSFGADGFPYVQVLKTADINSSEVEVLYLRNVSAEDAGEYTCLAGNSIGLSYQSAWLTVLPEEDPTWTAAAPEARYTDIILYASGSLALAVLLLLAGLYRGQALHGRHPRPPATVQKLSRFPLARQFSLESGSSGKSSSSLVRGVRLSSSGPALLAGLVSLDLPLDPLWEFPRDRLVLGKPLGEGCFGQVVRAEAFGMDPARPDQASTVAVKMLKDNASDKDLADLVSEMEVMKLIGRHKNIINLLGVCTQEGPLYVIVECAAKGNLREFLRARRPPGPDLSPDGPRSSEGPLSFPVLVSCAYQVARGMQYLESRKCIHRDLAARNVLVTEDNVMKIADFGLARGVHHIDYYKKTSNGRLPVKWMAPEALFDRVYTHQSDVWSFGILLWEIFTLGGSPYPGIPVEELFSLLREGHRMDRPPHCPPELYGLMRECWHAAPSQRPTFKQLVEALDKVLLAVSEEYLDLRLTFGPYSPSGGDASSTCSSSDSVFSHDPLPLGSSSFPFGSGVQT
Serine/threonine-protein kinase PLK3 (Homo sapiens), sequence (Q9H4B4 whole entry, looked up, canonical isoform): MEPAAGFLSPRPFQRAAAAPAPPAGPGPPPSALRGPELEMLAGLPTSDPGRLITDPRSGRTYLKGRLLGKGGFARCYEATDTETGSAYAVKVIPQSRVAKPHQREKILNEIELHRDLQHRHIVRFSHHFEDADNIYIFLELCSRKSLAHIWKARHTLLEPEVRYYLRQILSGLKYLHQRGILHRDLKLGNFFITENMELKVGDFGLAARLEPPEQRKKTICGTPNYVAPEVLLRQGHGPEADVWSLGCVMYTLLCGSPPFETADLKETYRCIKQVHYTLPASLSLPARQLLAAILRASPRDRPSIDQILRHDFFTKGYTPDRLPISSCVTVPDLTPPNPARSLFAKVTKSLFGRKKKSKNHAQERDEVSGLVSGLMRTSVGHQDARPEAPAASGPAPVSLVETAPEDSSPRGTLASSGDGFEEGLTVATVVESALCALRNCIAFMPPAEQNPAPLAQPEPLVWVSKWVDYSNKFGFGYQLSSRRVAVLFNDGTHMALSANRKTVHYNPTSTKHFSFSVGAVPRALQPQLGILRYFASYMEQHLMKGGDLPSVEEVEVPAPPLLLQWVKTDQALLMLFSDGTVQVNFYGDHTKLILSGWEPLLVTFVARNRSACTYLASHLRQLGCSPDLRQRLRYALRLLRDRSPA
Fibroblast growth factor receptor 1 (Homo sapiens), P11362 [V561M], sequence (P11362 whole entry V561M): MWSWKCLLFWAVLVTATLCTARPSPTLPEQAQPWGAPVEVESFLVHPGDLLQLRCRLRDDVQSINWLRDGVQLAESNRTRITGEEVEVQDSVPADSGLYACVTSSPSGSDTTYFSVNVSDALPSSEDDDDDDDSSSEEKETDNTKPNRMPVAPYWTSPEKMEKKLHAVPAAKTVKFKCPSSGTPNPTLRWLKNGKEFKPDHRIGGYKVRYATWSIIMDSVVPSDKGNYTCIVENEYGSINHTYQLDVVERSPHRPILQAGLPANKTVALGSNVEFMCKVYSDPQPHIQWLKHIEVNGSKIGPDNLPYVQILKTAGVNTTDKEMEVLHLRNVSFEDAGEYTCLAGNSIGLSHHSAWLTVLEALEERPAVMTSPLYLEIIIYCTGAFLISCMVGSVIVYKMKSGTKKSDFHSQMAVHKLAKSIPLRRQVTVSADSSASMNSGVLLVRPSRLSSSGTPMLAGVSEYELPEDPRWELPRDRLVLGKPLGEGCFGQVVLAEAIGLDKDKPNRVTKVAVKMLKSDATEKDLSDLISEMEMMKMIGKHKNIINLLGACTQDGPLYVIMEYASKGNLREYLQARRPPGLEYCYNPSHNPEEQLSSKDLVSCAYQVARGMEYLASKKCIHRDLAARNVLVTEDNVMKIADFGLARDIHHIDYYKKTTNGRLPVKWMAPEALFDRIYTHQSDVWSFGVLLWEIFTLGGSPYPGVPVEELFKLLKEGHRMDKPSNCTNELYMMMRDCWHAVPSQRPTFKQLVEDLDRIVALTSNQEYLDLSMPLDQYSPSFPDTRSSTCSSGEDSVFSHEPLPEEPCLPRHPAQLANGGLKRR
Ephrin type-A receptor 4 (Homo sapiens), sequence (P54764 whole entry): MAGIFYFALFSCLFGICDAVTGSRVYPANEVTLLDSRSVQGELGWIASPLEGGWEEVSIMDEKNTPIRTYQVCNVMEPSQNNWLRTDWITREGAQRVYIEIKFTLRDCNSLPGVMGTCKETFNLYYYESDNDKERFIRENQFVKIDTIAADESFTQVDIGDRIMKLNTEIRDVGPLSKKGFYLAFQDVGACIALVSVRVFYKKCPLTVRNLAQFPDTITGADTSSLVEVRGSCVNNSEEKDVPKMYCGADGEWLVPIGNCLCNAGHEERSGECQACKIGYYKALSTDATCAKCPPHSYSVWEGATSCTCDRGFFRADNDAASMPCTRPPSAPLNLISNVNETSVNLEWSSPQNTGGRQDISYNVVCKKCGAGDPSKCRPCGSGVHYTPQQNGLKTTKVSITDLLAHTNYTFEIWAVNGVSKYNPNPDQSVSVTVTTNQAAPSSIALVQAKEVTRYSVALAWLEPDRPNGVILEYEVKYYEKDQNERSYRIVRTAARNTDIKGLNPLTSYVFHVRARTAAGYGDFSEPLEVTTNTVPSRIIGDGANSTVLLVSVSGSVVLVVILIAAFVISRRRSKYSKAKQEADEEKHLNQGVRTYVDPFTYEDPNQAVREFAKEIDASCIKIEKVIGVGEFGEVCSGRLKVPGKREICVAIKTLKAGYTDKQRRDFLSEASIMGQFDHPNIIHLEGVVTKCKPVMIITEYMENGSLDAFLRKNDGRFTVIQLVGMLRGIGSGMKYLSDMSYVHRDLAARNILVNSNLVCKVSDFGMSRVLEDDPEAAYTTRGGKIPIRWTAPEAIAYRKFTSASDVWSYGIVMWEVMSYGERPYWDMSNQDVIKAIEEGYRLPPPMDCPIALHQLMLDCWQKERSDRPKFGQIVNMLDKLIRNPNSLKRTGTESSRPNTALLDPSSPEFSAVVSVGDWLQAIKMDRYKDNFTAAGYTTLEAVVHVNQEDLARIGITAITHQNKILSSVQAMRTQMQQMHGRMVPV

Compound	residual activity [1]	residual activity [2]	residual activity [3]	residual activity [4]	residual activity [5]	residual activity [6]	residual activity [7]	residual activity [8]	residual activity [9]	residual activity [10]	residual activity [11]	residual activity [12]
COc1cc2c(Oc3ccc(-c4nc5ccccc5s4)cc3)ncnc2cc1OCCCN1CCN(C)CC1	103%	2%	96%	109%	93%	287%	329%	103%	101%	0%	93%	63%
COc1cc2c(Oc3ccc(-c4nc5ccccc5s4)cc3F)ncnc2cc1OCCCN1CCN(C)CC1	102%	257%	72%	93%	92%	118%	180%	93%	96%	117%	95%	80%
COc1cc2c(Oc3ccc(-c4nc5ccccc5s4)cc3)ncnc2cc1OCCCN1CCCC1	83%	223%	80%	108%	90%	205%	414%	93%	76%	92%	94%	56%
